Measurements: ChEMBL document CHEMBL1201862, “PubChem BioAssay data set” (2004)
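Where inhibition never reached the appropriate level, the endpoint shown equals the highest concentration tested. Otherwise, values were interpolated linearly from a five-concentration, 48-hour dose response in 96-well plates. Abbreviation: GI50, concentration required for 50% inhibition of growth.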 Calls of active or inactive are those of the source. Rule as the data show it: active = GI50 up to about 1.1 µM and inactive = higher.

Experiments:
Assay in all cases: NCI tumour cell line growth inhibition, 48 h
786-0 = tested on: 786-0
A549 = tested on: A549
ACHN = tested on: ACHN
CAKI-1 = tested on: CAKI-1
CCRF-CEM = tested on: CCRF-CEM
COLO 205 = tested on: COLO 205
DLD-1 = tested on: DLD-1
DMS-114 = tested on: DMS-114
DMS-273 = tested on: DMS-273
EKVX = tested on: EKVX
HCC 2998 = tested on: HCC 2998
HCT-116 = tested on: HCT-116
HCT-15 = tested on: HCT-15
HOP-18 = tested on: HOP-18
HOP-62 = tested on: HOP-62
HOP-92 = tested on: HOP-92
IGROV-1 = tested on: IGROV-1
K562 = tested on: K562
KM-20L2 = tested on: KM-20L2
KM12 = tested on: KM12
LOX IMVI = tested on: LOX IMVI
LXFL 529 = tested on: LXFL 529
M14 = tested on: M14
M19-MEL = tested on: M19-MEL
MOLT-4 = tested on: MOLT-4
Malme-3M = tested on: Malme-3M
NCI-H226 = tested on: NCI-H226
NCI-H23 = tested on: NCI-H23
NCI-H522 = tested on: NCI-H522
OVCAR-3 = tested on: OVCAR-3
OVCAR-4 = tested on: OVCAR-4
OVCAR-5 = tested on: OVCAR-5
OVCAR-8 = tested on: OVCAR-8
RXF 393 = tested on: RXF 393
RXF 631 = tested on: RXF 631
SF-268 = tested on: SF-268
SF-295 = tested on: SF-295
SF-539 = tested on: SF-539
SK-MEL-28 = tested on: SK-MEL-28
SK-MEL-2 = tested on: SK-MEL-2
SK-MEL-5 = tested on: SK-MEL-5
SK-OV-3 = tested on: SK-OV-3
SN12C = tested on: SN12C
SNB-19 = tested on: SNB-19
SNB-75 = tested on: SNB-75
SNB-78 = tested on: SNB-78
SW-620 = tested on: SW-620
TK-10 = tested on: TK-10
U-251 = tested on: U-251
UACC-257 = tested on: UACC-257
UO-31 = tested on: UO-31
XF498 = tested on: XF498
HT-29 = tested on: HT-29
NCI-H460 = tested on: NCI-H460
RPMI-8226 = tested on: RPMI-8226
SR = tested on: SR
UACC-62 = tested on: UACC-62

Nc1ccc(Nc2nc(F)nc(-c3c4ccccc4c4n3CCS4)n2)cc1
GI50 (786-0): 15.7 µM (inactive) | GI50 (A549): 10.5 µM (inactive) | GI50 (ACHN): 12.7 µM (inactive) | GI50 (CAKI-1): 11 µM (inactive) | GI50 (CCRF-CEM): 6.56 µM (inactive) | GI50 (COLO 205): 19.1 µM (inactive) | GI50 (DLD-1): 16.7 µM (inactive) | GI50 (DMS-114): 17.1 µM (inactive) | GI50 (DMS-273): 10.4 µM (inactive) | GI50 (EKVX): 18.1 µM (inactive) | GI50 (HCC 2998): 22 µM (inactive) | GI50 (HCT-116): 14.6 µM (inactive) | GI50 (HCT-15): 10.1 µM | GI50 (HOP-18): 13.8 µM (inactive) | GI50 (HOP-62): 16 µM (inactive) | GI50 (HOP-92): 6.18 µM (inactive) | GI50 (IGROV-1): 12.4 µM (inactive) | GI50 (K562): > 10 µM (inactive) | GI50 (KM-20L2): 18.1 µM (inactive) | GI50 (KM12): 10.9 µM (inactive) | GI50 (LOX IMVI): 10.4 µM (inactive) | GI50 (LXFL 529): 14.9 µM (inactive) | GI50 (M14): 17 µM (inactive) | GI50 (M19-MEL): 16.5 µM (inactive) | GI50 (MOLT-4): 11.2 µM (inactive) | GI50 (Malme-3M): 14.5 µM (inactive) | GI50 (NCI-H226): 11.6 µM (inactive) | GI50 (NCI-H23): 16.2 µM (inactive) | GI50 (NCI-H522): 14 µM (inactive) | GI50 (OVCAR-3): 19.3 µM (inactive) | GI50 (OVCAR-4): 15 µM (inactive) | GI50 (OVCAR-5): 17.6 µM (inactive) | GI50 (OVCAR-8): 16.8 µM (inactive) | GI50 (RXF 393): 16 µM (inactive) | GI50 (RXF 631): 15 µM (inactive) | GI50 (SF-268): 15.7 µM (inactive) | GI50 (SF-295): 15.7 µM (inactive) | GI50 (SF-539): 13.4 µM (inactive) | GI50 (SK-MEL-28): 15.8 µM (inactive) | GI50 (SK-MEL-2): 14.1 µM (inactive) | GI50 (SK-MEL-5): 13.1 µM (inactive) | GI50 (SK-OV-3): 15.3 µM (inactive) | GI50 (SN12C): 15.5 µM (inactive) | GI50 (SNB-19): 15.4 µM (inactive) | GI50 (SNB-75): 14.9 µM (inactive) | GI50 (SNB-78): 36.1 µM (inactive) | GI50 (SW-620): 13 µM (inactive) | GI50 (TK-10): 19.6 µM (inactive) | GI50 (U-251): 14.7 µM (inactive) | GI50 (UACC-257): > 10 µM (inactive) | GI50 (UO-31): 8.38 µM (inactive) | GI50 (XF498): 4.91 µM (inactive)

CC(=O)OC1(C#N)CC2OC1C1C2N=NN1C(=O)OC(C)(C)C (stereo unspecified)
GI50 (A549): 34.4 µM (inactive) | GI50 (ACHN): > 100 µM (inactive) | GI50 (CAKI-1): > 100 µM (inactive) | GI50 (CCRF-CEM): 15.2 µM (inactive) | GI50 (COLO 205): > 100 µM (inactive) | GI50 (DLD-1): 20.4 µM (inactive) | GI50 (DMS-114): 23.2 µM (inactive) | GI50 (DMS-273): 29 µM (inactive) | GI50 (EKVX): 68.2 µM (inactive) | GI50 (HCC 2998): 44.5 µM (inactive) | GI50 (HCT-116): 12.5 µM (inactive) | GI50 (HCT-15): 21.4 µM | GI50 (HOP-18): > 100 µM (inactive) | GI50 (HOP-62): > 100 µM (inactive) | GI50 (HOP-92): 27.5 µM (inactive) | GI50 (HT-29): 39.4 µM (inactive) | GI50 (IGROV-1): 35 µM (inactive) | GI50 (K562): 33.5 µM (inactive) | GI50 (KM-20L2): 55.8 µM (inactive) | GI50 (LOX IMVI): 11.5 µM (inactive) | GI50 (LXFL 529): 33 µM (inactive) | GI50 (M14): 21 µM (inactive) | GI50 (M19-MEL): 16.5 µM (inactive) | GI50 (MOLT-4): 50.1 µM (inactive) | GI50 (Malme-3M): 21.9 µM (inactive) | GI50 (NCI-H23): 29.6 µM (inactive) | GI50 (NCI-H460): 32 µM (inactive) | GI50 (NCI-H522): > 100 µM (inactive) | GI50 (OVCAR-3): 47.6 µM (inactive) | GI50 (OVCAR-4): 65.6 µM (inactive) | GI50 (OVCAR-5): 54.6 µM (inactive) | GI50 (OVCAR-8): 34.6 µM (inactive) | GI50 (RPMI-8226): 39.9 µM (inactive) | GI50 (RXF 393): 40.6 µM (inactive) | GI50 (RXF 631): 50.6 µM (inactive) | GI50 (SF-268): 37.1 µM (inactive) | GI50 (SF-539): 23.2 µM (inactive) | GI50 (SK-MEL-28): 28.8 µM (inactive) | GI50 (SK-MEL-2): 23.4 µM (inactive) | GI50 (SK-MEL-5): 35.3 µM (inactive) | GI50 (SN12C): 35.6 µM (inactive) | GI50 (SNB-75): 31.8 µM (inactive) | GI50 (SNB-78): 26.9 µM (inactive) | GI50 (SR): 32.8 µM (inactive) | GI50 (SW-620): 30.7 µM (inactive) | GI50 (TK-10): 20.4 µM (inactive) | GI50 (UACC-257): 35.4 µM (inactive) | GI50 (UACC-62): 19.5 µM (inactive) | GI50 (UO-31): 73.3 µM (inactive)
